The record followed here is ChEMBL document CHEMBL1142252, “Identification of aminopyrazolopyridine ureas as potent VEGFR/PDGFR multitargeted kinase inhibitors” (Bioorg Med Chem Lett, 2008).

Converted amounts (≈) assume the structure as drawn.

The subject of data set [1] is Mus musculus. The data set is described as follows: Inhibition of estradiol-induced uterine edema in mouse at 10 mg/kg, po. The conditions noted are these: read-out: Inhibition.
Data set [2] can be described thus: Aqueous solubility at pH 7.2. Type of data set: physicochemical. The following applies: buffer.
A short description of data set [3]: AUC in mouse at 10 mg/kg, po. Type of data set: ADME, organism-based. The arrangement: dose 10 mg/kg, route oral. The conditions noted are these: plasma.
The nature of data set [4]: Volume of distribution in mouse at 3 mg/kg, iv. Also noted: dose 3 mg/kg, route intravenous. The data set is classed as ADME, organism-based. The conditions noted are these: in vivo.
The target of data set [5] is T1, Vascular endothelial growth factor receptor 2 (Homo sapiens, UniProt P35968).
T1 sequence (P35968 whole entry): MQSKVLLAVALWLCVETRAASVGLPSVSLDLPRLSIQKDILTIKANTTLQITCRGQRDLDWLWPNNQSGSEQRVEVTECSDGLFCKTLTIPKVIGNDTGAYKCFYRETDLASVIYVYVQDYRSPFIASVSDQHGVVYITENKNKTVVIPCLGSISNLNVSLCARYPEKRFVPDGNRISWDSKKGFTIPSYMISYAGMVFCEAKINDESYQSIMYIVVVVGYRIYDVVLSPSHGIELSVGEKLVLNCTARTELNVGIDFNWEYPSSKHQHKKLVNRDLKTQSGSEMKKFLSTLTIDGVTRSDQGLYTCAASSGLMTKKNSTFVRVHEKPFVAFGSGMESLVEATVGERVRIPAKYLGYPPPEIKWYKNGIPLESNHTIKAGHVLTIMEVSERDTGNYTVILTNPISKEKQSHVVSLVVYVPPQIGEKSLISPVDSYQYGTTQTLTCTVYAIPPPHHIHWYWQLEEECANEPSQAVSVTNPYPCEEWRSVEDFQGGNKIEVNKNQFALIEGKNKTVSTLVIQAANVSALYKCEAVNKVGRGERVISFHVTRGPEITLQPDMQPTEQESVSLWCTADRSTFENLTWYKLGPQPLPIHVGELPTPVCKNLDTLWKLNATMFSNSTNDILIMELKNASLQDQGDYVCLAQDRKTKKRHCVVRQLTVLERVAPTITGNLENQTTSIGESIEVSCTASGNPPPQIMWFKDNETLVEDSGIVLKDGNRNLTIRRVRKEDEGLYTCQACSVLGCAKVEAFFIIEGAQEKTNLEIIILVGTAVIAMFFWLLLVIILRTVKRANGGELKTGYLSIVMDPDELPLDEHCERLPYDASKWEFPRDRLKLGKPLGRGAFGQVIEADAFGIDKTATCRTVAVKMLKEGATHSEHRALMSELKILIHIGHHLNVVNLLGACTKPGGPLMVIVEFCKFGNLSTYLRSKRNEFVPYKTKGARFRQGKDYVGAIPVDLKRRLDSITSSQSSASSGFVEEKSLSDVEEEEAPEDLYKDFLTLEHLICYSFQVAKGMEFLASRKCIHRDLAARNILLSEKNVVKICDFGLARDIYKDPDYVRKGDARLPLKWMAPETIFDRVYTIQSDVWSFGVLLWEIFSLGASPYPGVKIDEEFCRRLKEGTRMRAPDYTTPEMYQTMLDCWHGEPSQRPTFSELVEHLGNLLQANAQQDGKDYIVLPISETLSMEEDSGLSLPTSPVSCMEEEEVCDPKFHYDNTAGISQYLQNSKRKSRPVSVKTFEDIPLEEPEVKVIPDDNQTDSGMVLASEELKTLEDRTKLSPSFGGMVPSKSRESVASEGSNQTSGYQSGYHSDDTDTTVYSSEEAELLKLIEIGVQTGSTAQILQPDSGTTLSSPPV
Description: Inhibition of KDR by HTRF assay
Data set [6] can be described thus: Half life in mouse at 3 mg/kg, iv. The conditions noted are these: in vivo. The arrangement: dose 3 mg/kg, route intravenous. The data set is classed as ADME, organism-based.
For data set [7], the target named is T1, Vascular endothelial growth factor receptor 2. The source holds these as a separate data set.
Description: Inhibition of VEGF-induced human KDR phosphorylation in mouse 3T3 cells
Data set [8] is described as follows: Clearance in mouse at 3 mg/kg, iv. The data set is classed as ADME, organism-based. The arrangement: dose 3 mg/kg, route intravenous. The following applies: in vivo.
Data set [9] can be described thus: Oral bioavailability in mouse at 10 mg/kg. The data set is classed as ADME, organism-based. The following applies: in vivo.
Data set [10] concerns the target Vascular endothelial growth factor receptor 1 (Homo sapiens, UniProt P17948). The experiment in a line: Inhibition of FLT1 by HTRF assay. In general terms: TR-FRET usually uses a lanthanide donor and a delayed reading to cut background.
Data set [11] concerns the target T2, Receptor-type tyrosine-protein kinase FLT3 (Homo sapiens, UniProt P36888).
T2 sequence (P36888 whole entry): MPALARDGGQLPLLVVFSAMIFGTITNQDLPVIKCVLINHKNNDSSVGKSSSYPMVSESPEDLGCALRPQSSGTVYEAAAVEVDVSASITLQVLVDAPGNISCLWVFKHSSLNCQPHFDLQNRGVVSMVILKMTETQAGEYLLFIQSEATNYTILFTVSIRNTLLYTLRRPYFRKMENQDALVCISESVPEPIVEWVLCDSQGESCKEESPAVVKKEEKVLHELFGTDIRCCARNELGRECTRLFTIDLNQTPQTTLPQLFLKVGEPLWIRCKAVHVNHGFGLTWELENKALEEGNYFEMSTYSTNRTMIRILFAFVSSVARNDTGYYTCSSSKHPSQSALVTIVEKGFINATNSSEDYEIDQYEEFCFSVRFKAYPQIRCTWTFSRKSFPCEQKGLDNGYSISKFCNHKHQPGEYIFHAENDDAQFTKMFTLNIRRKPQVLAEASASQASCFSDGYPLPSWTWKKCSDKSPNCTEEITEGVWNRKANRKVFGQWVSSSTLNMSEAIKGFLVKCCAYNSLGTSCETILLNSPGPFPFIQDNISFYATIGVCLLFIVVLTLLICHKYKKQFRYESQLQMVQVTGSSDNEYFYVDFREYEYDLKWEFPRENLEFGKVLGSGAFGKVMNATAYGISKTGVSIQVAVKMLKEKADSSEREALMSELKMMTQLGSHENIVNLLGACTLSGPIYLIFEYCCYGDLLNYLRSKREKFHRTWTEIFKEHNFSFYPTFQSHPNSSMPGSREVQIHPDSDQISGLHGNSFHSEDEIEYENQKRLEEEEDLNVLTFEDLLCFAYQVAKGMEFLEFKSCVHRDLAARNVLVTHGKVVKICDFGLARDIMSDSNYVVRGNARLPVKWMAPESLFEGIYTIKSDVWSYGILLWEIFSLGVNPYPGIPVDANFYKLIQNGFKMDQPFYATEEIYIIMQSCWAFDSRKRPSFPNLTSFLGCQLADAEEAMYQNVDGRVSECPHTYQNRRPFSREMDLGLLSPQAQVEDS
The data set is described as follows: Inhibition of FLT3 by HTRF assay.

In data set [12] the target is Mast/stem cell growth factor receptor Kit (Homo sapiens, UniProt P10721). The experiment in a line: Inhibition of cKit by HTRF assay.
Mast/stem cell growth factor receptor Kit, sequence (P10721 whole entry): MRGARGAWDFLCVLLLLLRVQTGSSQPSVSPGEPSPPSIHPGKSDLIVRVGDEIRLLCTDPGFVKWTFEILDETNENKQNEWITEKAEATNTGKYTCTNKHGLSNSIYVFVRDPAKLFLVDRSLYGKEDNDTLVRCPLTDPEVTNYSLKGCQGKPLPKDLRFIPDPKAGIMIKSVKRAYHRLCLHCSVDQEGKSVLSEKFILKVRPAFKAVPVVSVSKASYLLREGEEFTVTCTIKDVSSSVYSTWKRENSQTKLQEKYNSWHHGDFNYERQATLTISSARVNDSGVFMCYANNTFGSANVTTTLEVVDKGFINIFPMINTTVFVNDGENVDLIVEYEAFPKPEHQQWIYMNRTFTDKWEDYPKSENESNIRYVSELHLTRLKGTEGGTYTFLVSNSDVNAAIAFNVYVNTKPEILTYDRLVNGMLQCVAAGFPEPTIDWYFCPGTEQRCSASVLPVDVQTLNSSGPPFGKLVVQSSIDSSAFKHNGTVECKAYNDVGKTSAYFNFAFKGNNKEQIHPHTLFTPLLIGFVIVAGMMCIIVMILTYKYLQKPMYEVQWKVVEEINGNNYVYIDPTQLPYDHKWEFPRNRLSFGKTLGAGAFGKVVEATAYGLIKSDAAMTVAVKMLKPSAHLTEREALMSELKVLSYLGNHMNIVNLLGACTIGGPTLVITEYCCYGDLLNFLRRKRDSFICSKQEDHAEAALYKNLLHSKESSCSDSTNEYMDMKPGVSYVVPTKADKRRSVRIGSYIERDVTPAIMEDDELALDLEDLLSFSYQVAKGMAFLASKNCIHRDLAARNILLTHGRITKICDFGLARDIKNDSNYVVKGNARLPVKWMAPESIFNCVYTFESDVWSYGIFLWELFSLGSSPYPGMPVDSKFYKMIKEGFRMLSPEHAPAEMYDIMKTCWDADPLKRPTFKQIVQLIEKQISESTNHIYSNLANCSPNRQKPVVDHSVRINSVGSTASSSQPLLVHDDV
Data set [13] has as its target Tyrosine-protein kinase Fyn (Homo sapiens, UniProt P06241). The data set is described as follows: Inhibition of FYN by HTRF assay.
Data set [14] deals with Macrophage colony-stimulating factor 1 receptor (Homo sapiens, UniProt P07333). The experiment in a line: Inhibition of CSF1R by HTRF assay.
Macrophage colony-stimulating factor 1 receptor, sequence (P07333 whole entry): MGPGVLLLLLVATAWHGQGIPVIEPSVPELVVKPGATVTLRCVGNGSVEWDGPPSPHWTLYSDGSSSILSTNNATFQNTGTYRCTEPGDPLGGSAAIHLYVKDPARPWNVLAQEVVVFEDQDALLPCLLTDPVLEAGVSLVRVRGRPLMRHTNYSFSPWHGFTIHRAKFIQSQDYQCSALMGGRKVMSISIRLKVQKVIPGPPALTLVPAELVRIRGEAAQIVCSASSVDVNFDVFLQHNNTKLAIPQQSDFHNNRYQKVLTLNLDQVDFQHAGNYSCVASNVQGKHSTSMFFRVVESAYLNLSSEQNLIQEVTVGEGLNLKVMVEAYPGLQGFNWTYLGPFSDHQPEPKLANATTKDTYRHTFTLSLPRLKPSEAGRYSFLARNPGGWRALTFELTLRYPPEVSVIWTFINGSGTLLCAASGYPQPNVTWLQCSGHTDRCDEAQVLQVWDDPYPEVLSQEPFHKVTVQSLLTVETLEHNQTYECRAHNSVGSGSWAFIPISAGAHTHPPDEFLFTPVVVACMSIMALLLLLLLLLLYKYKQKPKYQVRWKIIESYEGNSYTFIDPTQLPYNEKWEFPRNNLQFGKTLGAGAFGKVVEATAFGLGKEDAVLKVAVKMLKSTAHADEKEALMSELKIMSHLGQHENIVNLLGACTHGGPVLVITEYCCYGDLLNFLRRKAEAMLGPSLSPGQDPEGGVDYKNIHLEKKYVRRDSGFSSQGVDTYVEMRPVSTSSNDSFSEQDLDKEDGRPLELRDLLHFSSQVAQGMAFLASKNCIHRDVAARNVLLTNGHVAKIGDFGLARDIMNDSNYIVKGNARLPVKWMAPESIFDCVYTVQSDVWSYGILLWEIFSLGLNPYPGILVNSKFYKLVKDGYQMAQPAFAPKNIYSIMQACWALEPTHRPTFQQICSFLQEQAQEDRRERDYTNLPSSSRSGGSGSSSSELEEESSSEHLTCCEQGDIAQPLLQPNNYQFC

Tyrosine-protein kinase Fyn, sequence (P06241 whole entry): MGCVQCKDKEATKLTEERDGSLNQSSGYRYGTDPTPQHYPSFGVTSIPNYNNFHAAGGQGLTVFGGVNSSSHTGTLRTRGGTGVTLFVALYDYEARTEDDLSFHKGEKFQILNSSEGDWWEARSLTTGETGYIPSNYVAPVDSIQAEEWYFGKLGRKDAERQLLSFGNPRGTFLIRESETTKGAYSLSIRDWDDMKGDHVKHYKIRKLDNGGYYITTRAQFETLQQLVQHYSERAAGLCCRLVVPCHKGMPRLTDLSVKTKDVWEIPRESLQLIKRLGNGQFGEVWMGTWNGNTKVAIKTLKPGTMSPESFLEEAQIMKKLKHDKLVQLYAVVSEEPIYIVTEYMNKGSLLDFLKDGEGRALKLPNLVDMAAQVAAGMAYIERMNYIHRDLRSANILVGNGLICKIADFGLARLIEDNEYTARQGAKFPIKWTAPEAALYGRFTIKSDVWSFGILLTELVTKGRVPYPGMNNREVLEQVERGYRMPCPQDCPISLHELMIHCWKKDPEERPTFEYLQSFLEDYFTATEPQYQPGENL

As for `Nc1n[nH]c2cncc(-c3ccc(NC(=O)Nc4cc(C(F)(F)F)ccc4F)cc3)c12`, the inhibition in vivo at 10 mg/kg in data set [1] is 35%.
`Cc1cc(C)cc(NC(=O)Nc2ccc(-c3ccnc4[nH]nc(N)c34)cc2)c1`: the inhibition in vivo at 10 mg/kg in [1] was determined as 77%.
The solubility is the concentration that dissolves in the medium under given conditions. `Nc1n[nH]c2nccc(-c3ccc(NC(=O)Nc4cccc(Cl)c4)cc3)c12` came in with a solubility in data set [2] of 1.6 µM (≈ 0.606 µg/mL). The inhibition in vivo at 10 mg/kg in data set [1] was found to be 23%.
Consider `Cc1cc(NC(=O)Nc2ccc(-c3cncc4[nH]nc(N)c34)cc2)ccc1F`, for which the inhibition in vivo at 10 mg/kg in data set [1] came to 19%.
The AUC is the area under the concentration-time curve, a measure of exposure. A high value points to more exposure. The Vd is the apparent volume that relates the amount in the body to the concentration in plasma or blood. Read a high Vd as extensive tissue distribution. By IC50 is commonly meant the midpoint of a concentration-inhibition curve. For orientation: half-life means how long it takes for the measured level to halve. Usually clearance stands for a measure of how efficiently the substance is removed, as volume per time. Low readings indicate a low capacity for elimination, high ones a high capacity for elimination. What is called bioavailability is the share of a dose that reaches the circulation, judged against a reference dose that is usually intravenous. Low readings indicate little systemic uptake, high ones much systemic uptake. With `Cc1ccc(F)c(NC(=O)Nc2ccc(-c3cncc4c3c(N)nn4C)cc2)c1`, the AUC in data set [3] was determined as 30.2 µM·h. In data set [4], this molecule came in with a Vd of 1.48 L/kg. In addition, the IC50 in data set [5] stood at 7.7 nM; in data set [7], 3 nM. Moreover, the inhibition in vivo at 10 mg/kg in data set [1] turned out to be 72%. The half-life in data set [6] was 90 min. The clearance in [8] is 11.5 mL/min/kg. For the same molecule, the bioavailability in data set [9] came to 81%.
In data set [3], `Cc1ccc(F)c(NC(=O)Nc2ccc(-c3ccnc4[nH]nc(N)c34)cc2)c1` had an AUC of 15.7 µM·h. The molecule further came in with a Vd in data set [4] of 1.5 L/kg. Further, the inhibition in vivo at 10 mg/kg in data set [1] was 66%. In data set [6], the half-life was 60 min. Also, the clearance in [8] stood at 17.3 mL/min/kg. For the same molecule, the bioavailability in data set [9] came out at 62%.
As for `Nc1n[nH]c2nccc(-c3ccc(NC(=O)Nc4ccc(F)c(Cl)c4)cc3)c12`, in data set [1], the inhibition in vivo at 10 mg/kg is 55%.
`Nc1n[nH]c2nccc(-c3ccc(NC(=O)Nc4cccc(C(F)(F)F)c4)cc3)c12`: the IC50 stood at 5 nM in data set [10]; 2 nM in data set [11]; 7 nM in [12]; 11800 nM in [13]; 3 nM in [14].
For the molecule `Cc1ccccc1NC(=O)Nc1ccc(-c2ccnc3[nH]nc(N)c23)cc1`, the results for the IC50 in data set [5] and in [7] were 35 nM and 2.2 nM, respectively. Also, the inhibition in vivo at 10 mg/kg in data set [1] is under 5%.
For `Nc1n[nH]c2ccnc(-c3ccc(NC(=O)Nc4cccc(C(F)(F)F)c4)cc3)c12`, in data set [1], the inhibition in vivo at 10 mg/kg is under 5%.
`Cc1ccc(NC(=O)Nc2ccc(-c3ccnc4[nH]nc(N)c34)cc2)cc1`: the inhibition in vivo at 10 mg/kg in [1] is under 5%.
Same read-out and setting: as for `Cc1cccc(NC(=O)Nc2ccc(-c3cncc4[nH]nc(N)c34)cc2)c1`, the figure is 50%; as for `Cn1nc(N)c2c(-c3ccc(NC(=O)Nc4ccc(F)c(C(F)(F)F)c4)cc3)cncc21`, 59%; as for `Cc1cc(NC(=O)Nc2ccc(-c3nccc4[nH]nc(N)c34)cc2)ccc1F`, under 5%.
In data set [2], `Cc1ccc(F)c(NC(=O)Nc2ccc(-c3cncc4[nH]nc(N)c34)cc2)c1` had a solubility of 5.8 µM (≈ 2.18 µg/mL). In addition, the inhibition in vivo at 10 mg/kg in data set [1] turned out to be 98%.
On to `Cc1cc(C)cc(NC(=O)Nc2ccc(-c3nccc4[nH]nc(N)c34)cc2)c1`, for which the AUC in data set [3] came out at 0.89 µM·h. This molecule also displayed a distribution volume (Vd) in [4] of 1.71 L/kg. For the same molecule, in data set [1], the inhibition in vivo at 10 mg/kg was under 5%. The half-life in data set [6] is 27 min. Further, the clearance in data set [8] stood at 43.7 mL/min/kg. In data set [9], this molecule gave a bioavailability of 9%.
`Cc1cc(NC(=O)Nc2ccc(-c3ccnc4[nH]nc(N)c34)cc2)ccc1F`: the inhibition in vivo at 10 mg/kg in data set [1] is 108%.
In turn, `Cc1cccc(NC(=O)Nc2ccc(-c3cncc4c3c(N)nn4C)cc2)c1` showed an AUC in data set [3] of 25 µM·h. The molecule also registered a Vd in [4] of 0.66 L/kg. Also, the inhibition in vivo at 10 mg/kg in [1] is 79%. Besides, the half-life in data set [6] is 36 min. Besides, the clearance in data set [8] was 12.7 mL/min/kg. The molecule further came in with a bioavailability in data set [9] of 71%.
Regarding `Nc1n[nH]c2nccc(-c3ccc(NC(=O)Nc4ccccc4)cc3)c12`, the inhibition in vivo at 10 mg/kg in data set [1] amounted to 39%.
In turn, `Cc1ccc(F)c(NC(=O)Nc2ccc(-c3cccc4[nH]nc(N)c34)cc2)c1` [LINIFANIB] yielded a solubility in data set [2] of 0.07 µM (≈ 0.0263 µg/mL).
On to `Cn1nc(N)c2c(-c3ccc(NC(=O)Nc4cccc(Cl)c4)cc3)cncc21`, for which, in data set [1], the inhibition in vivo at 10 mg/kg was 52%.
Same read-out and setting: the figure for `Nc1n[nH]c2cncc(-c3ccc(NC(=O)Nc4cccc(Cl)c4)cc3)c12` is under 5%.
In data set [2], `Cc1ccc(F)c(NC(=O)Nc2ccc(-c3nccc4[nH]nc(N)c34)cc2)c1` returned a solubility of 9.5 µM (≈ 3.58 µg/mL). Further, in data set [1], the inhibition in vivo at 10 mg/kg is under 5%.
